According to article PMC1948018 (Retrovirology, 2007):

Columns and labels:
large form of P-TEFb [1] = target: T1, large form of P-TEFb (Homo sapiens, UniProt P50750); assay: Differential salt extraction, loss of large form of P-TEFb in Jurkat cells; type: cell-based; settings: 1 hour treatment, increasing concentrations
Procedure: (§1) The cytosolic extracts were prepared by resuspending the cells in 80 μl of Buffer A (10 mM KCl, 10 mM MgCl2, 10 mM HEPES, 1 mM EDTA, 1 mM DTT, 0.1% PMSF and EDTA-free complete protease inhibitor cocktail (Roche)) with 0.5% NP-40 for 10 minutes on ice. The nuclei were spun down at 5,000 g for 5 minutes and the supernatant was saved as the cytosolic extract (CE). The nuclei were washed once with 200 μl of Buffer A with 0.5% NP-40 and re-pelleted. The nuclei were resuspended in 80 μl of Buffer B (450 mM NaCl, 1.5 mM MgCl2, 20 mM HEPES, 0.5 mM EDTA, 1 mM DTT, 0.1% PMSF and EDTA-free complete protease inhibitor cocktail (Roche)) and incubated on ice for 10 minutes. The lysates were clarified by centrifugation at 20,000 g for 10 minutes. The supernatant was saved as the nuclear extract (NE). Western blotting was performed with one fifth of the samples and the fraction of Cdk9 and cyclin T1 in the cytosolic and nuclear extracts was determined by imaging the chemiluminescent signal using a cooled CCD camera (UVP). The signal was quantitated using LabWorks 4.0 software and the data fit to a logistic dose response curve using TableCurve (Jandel Scientific) to determine the IC50 for loss of the large, low salt extractable form of P-TEFb.

HIV-1p256 [2] = assay: microbe, parasite or virus in culture; type: cell-based; settings: Human immunodeficiency virus 1, HeLa37, 40 h, read-out: IC50 of inhibition of HIV in HeLa 37 cells
Procedure: Short-term, single hit infectivity studies were performed as previously described. HeLa37 cells were plated in a 48-well tray and triplicate wells were infected with a dual-tropic HIV-1p256 and serial dilutions of P-TEFb inhibitor for 40 hours. The cells were fixed with 75% acetone/25% H2O and immunostained for HIV-1 antigens using human anti-HIV serum (a gift from Dr. Jack Stapleton, Univ. of Iowa) and HRP-conjugated goat anti-human IgG followed by staining with 3-amino-9-ethylcarbazole (AEC). The HIV-1 antigen-positive cells were counted. Experiments were repeated at least three times with each drug concentration in triplicate.

HeLa37 cells = assay: Cell viability (ATPlite) in HeLa37 cells; type: cell-based; settings: performed in parallel to the 40 hour infectivity assay
Procedure: (§2) The impact of the P-TEFb inhibitors on cell viability was measured by ATPlite (Perkin Elmer). These cytotoxicity studies were performed as recommended by manufacturer utilizing a substrate solution that emits light in a manner proportional to the ATP present in each sample. Cells were plated in a 48-well format. Cells were treated with serial dilutions of the P-TEFb inhibitors and maintained for the indicated period of time. Mammalian cell lysis buffer was added to lyse the cells, followed by addition of the substrate solution. The amount of light produced in each well was measured in a TopCountR Microplate Scintillation and Luminescence Counter (Packard Instruments). Cytotoxicity experiments in HeLa37 cells were repeated at least three times with triplicates of each drug concentration.

HIV-1p256 [3] = assay: Long-term HIV-1 replication in PBLs (RT activity in supernatants); type: cell-based; settings: average of days 4, 8, 12, 16, read-out: average IC50 for inhibition of viral replication in PBLs
Procedure: (§3) Peripheral blood mononuclear cells (PBMCs) were isolated as previously described. Briefly, PBMCs were separated by centrifugation in lymphocyte separation medium (ICN Biomedicals, Solon, Ohio). The separated PBMCs were placed on gelatin and fibronectin-coated flasks in order to separate monocytes from mononuclear cells. […] PBLs were treated with 5 μg/ml of phytohaemagglutinin (PHA) for 72 hours prior to HIV infection and drug treatment. […] During long term studies in primary cells, supernatants were collected at 4, 8, 12 and 16 days post-infection, frozen at -80°C until analyzed and media was refreshed. […] Reverse transcriptase (RT) assays were performed on supernatants from HIV-1p256 infected cells as previously described. […] The mixture was incubated at 37°C for 3.5 hours and then blotted onto DE81 paper. The DE81 paper was washed 4 times with 3× SSPE and the amount of radioactivity that was incorporated into negative strand DNA was quantified with an InstantImager (Packard Instruments).

[4] = tested on: peripheral blood lymphocytes (PBLs); assay: Cell viability (ATPLite) in PBLs; type: cell-based, human; settings: average of days 4, 8, 12, 16
Procedure: (§4) Human monocyte derived macrophages (MDMs) and peripheral blood lymphocytes (PBLs) cells were isolated from 350 ml of peripheral blood from healthy, HIV negative donors. Peripheral blood mononuclear cells (PBMCs) were isolated as previously described. Briefly, PBMCs were separated by centrifugation in lymphocyte separation medium (ICN Biomedicals, Solon, Ohio). The separated PBMCs were placed on gelatin and fibronectin-coated flasks in order to separate monocytes from mononuclear cells. Adherent monocytes were lifted with EDTA, washed and plated at a density of 1 × 10^6 per well in 48-well trays for infectivity and cytotoxicity studies. Monocytes were differentiated for 5 days in DMEM with 10% FCS, 10% human serum and 1% penicillin/streptomycin in order to generate monocyte-derived macrophages prior to HIV infections and drug treatment. PBLs were treated with 5 μg/ml of phytohaemagglutinin (PHA) for 72 hours prior to HIV infection and drug treatment. PHA-treated PBLs were plated at a density of 1 × 10^6 per well in 48-well trays and maintained in RPMI 1640 with 10% FCS, 1% Penicillin/Streptomycin and 10 units/ml of recombinant IL-2. Viral infection was performed in MDMs and PBLs by adding 10,000 RT units of HIV-1p256 stock per 1 × 10^6 cells. During long term studies in primary cells, supernatants were collected at 4, 8, 12 and 16 days post-infection, frozen at -80°C until analyzed and media was refreshed.
as §2, with “Cytotoxicity experiments in HeLa37 cells were repeated at least three times with triplicates of each drug concentration.” left out

HIV-1p256 [5] = assay: Long-term HIV-1 replication in MDMs (RT activity in supernatants); type: cell-based; settings: Human immunodeficiency virus 1, pooled data of independent donors; days 4, 8, 12, 16; read-out: average IC50 for inhibition of HIV-1 replication in MDMs
Procedure: as §3

[6] = tested on: monocyte derived macrophages (MDMs); assay: Cell viability (ATPLite) in MDMs; type: cell-based, human; settings: pooled data of independent donors; days 4, 8, 12, 16
Procedure: as §4, with “PHA-treated PBLs were plated at a density of 1 × 10^6 per well in 48-well trays and maintained in RPMI 1640 with 10% FCS, 1% Penicillin/Streptomycin and 10 units/ml of recombinant IL-2. Viral infection was performed in MDMs and PBLs by adding 10,000 RT units of HIV-1p256 stock per 1 × 10^6 cells.” left out
The impact of the P-TEFb inhibitors on cell viability was measured by ATPlite (Perkin Elmer). […] The amount of light produced in each well was measured in a TopCountR Microplate Scintillation and Luminescence Counter (Packard Instruments). […]

HIV-1 = tested on: HIV-1; set-up: method as in PMID 11461999; settings: extensive 6 month study; cited from earlier work
large form of P-TEFb [7] = target: T1, large form of P-TEFb; assay: Glycerol gradient analysis of large and free forms of P-TEFb in DRB-treated HeLa cells; type: cell-based
Procedure: HeLa cells were grown in 100 ml of DMEM with 10% FCS to a density of 4 × 10^5 cells/ml in spinner flasks. The cells were treated for 1 hour with no P-TEFb inhibitor or serial dilutions of DRB ranging from 0.1 to 10 μM. Cell lysates were prepared in Buffer A (10 mM KCl, 10 mM MgCl2, 10 mM HEPES, 1 mM EDTA, 1 mM DTT, 0.1% PMSF and EDTA-free complete protease inhibitor cocktail (Roche)) containing 150 mM NaCl and 0.5% NP-40. The lysates were clarified by centrifugation at 20,000 g for 10 minutes at 4°C. The supernatant was layered on top of a 5–45% glycerol gradient containing 150 mM NaCl. Gradients were spun at 190,000 g for 16 hours using a SW-55Ti rotor. The fractions were analyzed for the presence of P-TEFb complexes by immunoblotting with anti-cyclin T1 and anti-Cdk9 antibodies (Santa Cruz). Following incubation with the appropriate HRP-conjugated secondary antibodies, the blots were developed using SuperSignal DuraWest (Pierce). The western blots were imaged using a cooled CCD camera (UVP) and the amount of P-TEFb in the large and free form was quantitated using LabWorks 4.0 software.

large form of P-TEFb [8] = target: T1, large form of P-TEFb; assay: Differential salt extraction, loss of large form of P-TEFb in HeLa cells; type: cell-based; settings: for IC50: 1 hour treatment
Procedure: as §1

[9] = target: recombinant P-TEFb (Cdk9/cyclin T1) (Homo sapiens, UniProt P50750); set-up: method as in earlier work; settings: preparation of DRB tested earlier; Peng et al (1998) Genes and Dev. 12: 755–762; read-out: IC50 of kinase inhibition; cited from earlier work
[10] = Phase I trials, highest tested doses; cited from earlier work

T1 sequence (P50750 whole entry): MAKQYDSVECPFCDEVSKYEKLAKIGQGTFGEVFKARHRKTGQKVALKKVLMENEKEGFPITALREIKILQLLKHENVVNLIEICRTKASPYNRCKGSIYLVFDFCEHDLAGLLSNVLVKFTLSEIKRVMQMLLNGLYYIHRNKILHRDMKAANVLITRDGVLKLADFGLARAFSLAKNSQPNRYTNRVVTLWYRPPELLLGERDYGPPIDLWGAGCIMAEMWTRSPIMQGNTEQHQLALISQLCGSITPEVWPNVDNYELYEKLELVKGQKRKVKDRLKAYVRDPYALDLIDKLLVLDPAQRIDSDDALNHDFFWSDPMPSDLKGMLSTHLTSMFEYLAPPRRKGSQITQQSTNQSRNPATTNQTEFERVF
T1 sequence (O60563 whole entry, further chain): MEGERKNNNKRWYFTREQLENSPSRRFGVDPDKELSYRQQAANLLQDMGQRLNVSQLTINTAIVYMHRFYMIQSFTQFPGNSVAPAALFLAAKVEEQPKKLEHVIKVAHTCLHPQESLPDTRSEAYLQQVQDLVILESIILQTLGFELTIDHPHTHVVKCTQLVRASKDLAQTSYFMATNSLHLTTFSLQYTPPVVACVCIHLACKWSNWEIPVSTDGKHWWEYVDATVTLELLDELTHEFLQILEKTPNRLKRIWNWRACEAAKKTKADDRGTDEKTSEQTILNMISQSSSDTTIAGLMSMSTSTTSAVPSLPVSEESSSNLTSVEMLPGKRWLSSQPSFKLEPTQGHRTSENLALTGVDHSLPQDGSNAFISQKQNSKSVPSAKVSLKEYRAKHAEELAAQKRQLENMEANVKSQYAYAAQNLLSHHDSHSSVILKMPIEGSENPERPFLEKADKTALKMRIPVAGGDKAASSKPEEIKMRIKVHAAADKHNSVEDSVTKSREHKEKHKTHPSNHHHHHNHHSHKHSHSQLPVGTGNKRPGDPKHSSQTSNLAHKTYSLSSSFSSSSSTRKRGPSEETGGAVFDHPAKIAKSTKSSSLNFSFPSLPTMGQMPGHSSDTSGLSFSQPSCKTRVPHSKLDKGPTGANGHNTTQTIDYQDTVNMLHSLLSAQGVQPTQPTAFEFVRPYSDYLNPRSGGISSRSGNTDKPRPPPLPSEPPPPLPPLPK
recombinant P-TEFb (Cdk9/cyclin T1), sequence (P50750 whole entry): as the sequence (P50750 whole entry) above
recombinant P-TEFb (Cdk9/cyclin T1), sequence (O60563 whole entry partner): as the sequence (O60563 whole entry, further chain) above

CN1CC[C@H](c2c(O)cc(O)c3c(=O)cc(-c4ccccc4Cl)oc23)[C@H](O)C1 [Flavopiridol]
effect on amount of the large form of P-TEFb (large form of P-TEFb [1]): gradual reduction in the amount of the large form | IC50 (HIV-1p256 [2]): 9.5 nM | Hela37 cell cytotoxicity (LD50) (HeLa37 cells): 0.225 µM | IC50 (HIV-1p256 [3]; Human immunodeficiency virus 1, donor #1): 35 nM | IC50 (HIV-1p256 [3]; Human immunodeficiency virus 1, donor #2): 40 nM | IC50 (HIV-1p256 [3]; Human immunodeficiency virus 1, donor #3): 61 nM | LD50 in PBLs ([4]; donor #1): 143 nM | LD50 in PBLs ([4]; donor #2): 81 nM | LD50 in PBLs ([4]; donor #3): 123 nM | IC50 (HIV-1p256 [5]): 61 nM | LD50 in MDMs [6]: 99 nM

CC[C@H](CO)Nc1nc(NCc2ccccc2)c2ncn(C(C)C)c2n1 [roscovitine]
generation of a resistant HIV-1 strain (HIV-1): unsuccessful

OC[C@H]1O[C@@H](n2cnc3cc(Cl)c(Cl)cc32)[C@H](O)[C@@H]1O [DRB, 5,6-dichloro-1-beta-D-ribofuranosylbenzimidazole]
P-TEFb subunits left in the large form of the complex (large form of P-TEFb [7]; 10 μM DRB, 1 hour, without DRB approx. 60% of Cdk9 and 70% of cyclin T1): about 20% | IC50 (large form of P-TEFb [7]; HeLa cells, 1 hour treatment, Cdk9 and cyclin T1 immunoblot of glycerol gradient fractions, read-out: concentration causing a 50% reduction in large form within the cell): ~3000 nM | P-TEFb subunits in cytosolic extracts prepared with low salt lysis buffer (large form of P-TEFb [8]; HeLa cells, 100 μM DRB, 1 hour, untreated approx. 50% in cytosolic extract): not detected | IC50 (large form of P-TEFb [8]; read-out: IC50 for the release of free form of P-TEFb from the large form of the complex, HeLa37 cells, low salt extraction): ~4500 nM | IC50 (large form of P-TEFb [8]; read-out: IC50 of loss of large form from HeLa cells: Cdk9, Cdk9 western blot): 4200 ± 1600 nM | IC50 (large form of P-TEFb [8]; read-out: IC50 of loss of large form from HeLa cells: Cyclin T1, cyclin T1 western blot): 5000 ± 3000 nM | effect on amount of the large form of P-TEFb (large form of P-TEFb [1]): gradual reduction of the large form | IC50 (HIV-1p256 [2]): 2600 nM | Hela37 cell cytotoxicity (LD50) (HeLa37 cells): 20 µM | IC50 [9]: 900 nM

CC[C@H](CO)Nc1nc(NCc2ccccc2)c2ncn(C(C)C)c2n1 [Seliciclib]
side effects caused [10]: fatigue and elevated creatinine
